Experimental data: PMC6469618 (Environmental Science and Pollution Research International, 2019)
Values joined by “and” are separate entries in the source; they are usually repeats but may differ in a detail not shown here. Equal entries are not always repeated.

Assays:
[1] = Study 1: static water only, stability of methylphenidate and breakdown to ritalinic acid; conditions: for Water concentration, measured end: final sampling day; for Water concentration, measured end / Water concentration, measured start: nominal 1870 ng/L methylphenidate, Ntanks = 1; for Water concentration, measured start: immediately after dosing
Method: A total of 1870 ng/L (nominal concentration) of methylphenidate (1 mL of the stock solution) was added to a glass aquarium filled with 20 L of ground water. The tank was aerated and kept at 20 °C (ambient room temperature). Water was sampled at 0 min (immediately after dosing), 5 min, 15 min, 45 min, 90 min, 4 h, 10 h, 24 h, 2 days, 3 days, 4 days, 5 days, 7 days, and 12 days. This exposure was conducted in a windowless room with a light-dark cycle of 13L:11D.
(§1) Fifty microlitres of methylphenidate-D9 (500 ng/L) was added to 10-ml aliquots of the aqueous samples, filtered (0.45 μm, Filtropur S, Sarstedt, N~umbrecht, Germany), and acidified with 10 μL formic acid (0.1% v/v, Merck KGaA, Darmstadt, Germany) to a pH of 2.7.
(§2) All of the samples were injected to an EQuan MAX Plus LC-Quantiva triple quadrupole MS/MS (Thermo Scientific, San Jose, USA). A 10-μL injection volume was used for stickleback/louse extracts and the calibration curve. For the aqueous samples, and the corresponding calibration curve, a 1-mL injection volume was used and preconcentrated the analytes on an online-connected Oasis HLB column (2.1 × 20 mm, 15 μm Waters, Milford, USA) using column switching (70 s transfer time and 180 s elution time). Milli-Q ultra-pure water (Millipore) and methanol (Lichrosolv, Hypergrade, Merck) were used as mobile phases (both containing 0.1% formic acid (Suprapur, Merck KGaA), v/v) together with Hypersil GOLD columns (Thermo Scientific) as stationary phases: guard (20 × 2.1 mm, 3 μm) and analytical (50 × 2.1 mm, 3 μm). The flow rate was kept at 350 μL/min, and we used two linear gradients. The gradient for the stickleback/louse extracts were as follows: 0–2 min, methanol 2%; 2–4 min, methanol 2–100%; 4–6 min, methanol 100%; and 6.01–7.5 min, methanol 2%. For the aqueous samples, the gradient was 0–2 min, methanol 2%; 2–4.75 min, methanol 2–100%; 4.75–7 min, methanol 100%; and 7.01–9 min, methanol 2%.
(§3) Positive polarity and a heated electrospray at 338 °C, an ion transfer tube temperature at 350 °C, and a spray voltage at 3.5 kV were used. […] See supplementary materials for QA/QC data.
(§4) All analyses were conducted in R (version: 3.5.0; R Core Team [2018]). […] Welch’s two-sample t tests were used to analyse whether methylphenidate degradation in the water column was impacted by temperature treatment. […] Degradation/formation rate, kd, is the slope given by a linear regression analysis. […] Relative tissue uptake was calculated at each sampling point.

[2] = Study 2: static water + biota, concentrations in the water column; conditions: for Formation time of ritalinic acid in water / Water concentration, measured end / Water concentration, measured start / half-life at 187 ng/L: static + biota; for Water concentration, measured end: final sampling day; for Water concentration, measured end / Water concentration, measured start: nominal 187 ng/L methylphenidate, mean ± s.d.; for Water concentration, measured start: immediately after dosing, Ntanks = 3; for half-life at 187 ng/L: aquarium water with biota (stickleback or water louse), pH 7, Half-life of methylphenidate in water
Method: Stickleback and water louse were exposed to 187 ng/L (nominal concentration) methylphenidate at two temperature treatments: 10 °C (in a climate chamber) and 20 °C (ambient room temperature). Both exposures were maintained at the same light cycle used in study 1. Organisms were exposed under static conditions using three replicate glass aquaria filled with 20 L water. The aquaria were equipped with an airstone and two ceramic clay pots for shelter in each temperature treatment. Fish were exposed in two tanks, while water louse were exposed separately in the remaining tank. Water from each tank was sampled at 0 min (immediately after dosing), 15 min, 30 min, 60 min, 4 h, 8 h, 24 h, 3 days, 5 days, 7 days, 9 days, 10 days, 11 days, 12 days, and 13 days. Three to six water louse and three to six fish were sampled at each of the following time points: 60 min, 4 h, 8 h, 24 h, 3 days, 5 days, 7 days, 9 days, 10 days, 11 days, 12 days, and 13 days. Fish were euthanized via cerebral concussion and spinal severance. Water quality measures of pH (Merck pH Universal Indicator Strips), dissolved oxygen, and temperature (YSI Pro DO Series) were verified in the exposure tanks on the final days of sampling.
as §1, §2, §3, §4

rhesus macaque = conditions: oral administration, ref Gualtieri et al. 1982, Doerge et al. 2000; cited from earlier work
zebrafish (Danio rerio) = tested on: zebrafish (Danio rerio); parameters: method as in Endres et al. 2017; conditions: stressed zebrafish; environmentally relevant concentrations; ref Endres et al. 2017; cited from earlier work
in vivo [3] = conditions: nine-spine stickleback (Pungitius pungitius), 187 ng/L
Excerpt: (§5) Nine-spine stickleback were collected using umbrella traps from ponds in Röbäck, Sweden, in July 2017. Fish were housed in a large, aerated, ground water flow-through tank (1500 L) until the start of the experiment. Fish were fed frozen chironomid larvae until satiation once daily. Water louse were collected using sweep nets from Djupsundsbäcken near Holmsund, Sweden, in January 2018. Water louse were kept in aerated containers with detritus (predominately alder leaf litter) until the start of the experiment.
(§6) Stickleback and water louse were exposed to 187 ng/L (nominal concentration) methylphenidate at two temperature treatments: 10 °C (in a climate chamber) and 20 °C (ambient room temperature). Both exposures were maintained at the same light cycle used in study 1. Organisms were exposed under static conditions using three replicate glass aquaria filled with 20 L water. The aquaria were equipped with an airstone and two ceramic clay pots for shelter in each temperature treatment. Fish were exposed in two tanks, while water louse were exposed separately in the remaining tank. Water from each tank was sampled at 0 min (immediately after dosing), 15 min, 30 min, 60 min, 4 h, 8 h, 24 h, 3 days, 5 days, 7 days, 9 days, 10 days, 11 days, 12 days, and 13 days. Three to six water louse and three to six fish were sampled at each of the following time points: 60 min, 4 h, 8 h, 24 h, 3 days, 5 days, 7 days, 9 days, 10 days, 11 days, 12 days, and 13 days. Fish were euthanized via cerebral concussion and spinal severance. Water quality measures of pH (Merck pH Universal Indicator Strips), dissolved oxygen, and temperature (YSI Pro DO Series) were verified in the exposure tanks on the final days of sampling. For the low (10 °C) and high (20 °C) temperature rooms, respectively, water temperature was (mean ± s.d.) 10.03 ± 0.32 °C and 17.07 ± 0.21 °C; dissolved oxygen was 14.40 ± 0.27 mg/L and 12.30 ± 0.30 mg/L; and there were no changes in pH (7 ± 0, for both temperatures).
(§7) Immediately after sampling, all water and organisms sampled were frozen at − 20 °C until further processing. Muscle tissue (mean ± s.d. 0.09 ± 0.02 g; range 0.02–0.13 g) was dissected from each stickleback by taking a section of the dorsal axial muscle. Water louse collected from each temperature treatment (10 °C and 20 °C) on each sampling day were pooled due to low sample weight before extracting whole-body tissue (0.05 ± 0.01 g; range 0.03–0.07 g). However, when enough tissue was available, multiple water louse samples were analysed. To each sample, 5 ng (50 μL) of the internal standard methylphenidate-D9 (Cerilliant, USA; in methanol, HPLC-grade, Fisher Chemical, Loughborough, UK) was added. For both stickleback and water louse, tissues were extracted using 1.5 ml acetonitrile (HPLC-grade, Fisher Chemical, Loughborough, UK) repeated twice (based on the method used by Brodin et al. [2013]; McCallum et al. [2017], [2018]). The samples were homogenized and extracted for 4 min at 42,000 oscillations per minute (Mini Beadbeater, Biospec. Bartlesville, USA) with zirconium beads and then centrifuged the samples at 17,500 g for 10 min (Beckman Coulter Microfuge 22R Centrifuge). This protocol was used for both eluent mixtures, and the supernatants were combined. The combined supernatants were evaporated to 20 μl and the sample was reconstituted in 100 μl methanol (HPLC-grade, Fisher Chemical, Loughborough, UK). […]

[4] = tested on: nine-spine stickleback (Pungitius pungitius); assay: Study 2: uptake in muscle tissue of stickleback; conditions: for Start relative tissue concentration (Cb/Cw): 60 min after dosing
Excerpt: as §5, §6, §7

[5] = ref SciFinder; cited from earlier work
zebrafish = tested on: zebrafish; parameters: method as in Levin et al. 2011; conditions: zebrafish exposed to 50 mg/L as embryos; ref Levin et al. 2011; cited from earlier work
[6] = tested on: guppies (Poecilia reticulata); parameters: method as in De Serrano et al. 2016; conditions: adult guppies exposed to 250 ng/L; ref De Serrano et al. 2016; cited from earlier work
human = conditions: oral administration, ref Gualtieri et al. 1982, Doerge et al. 2000; cited from earlier work
humans = conditions: standard dose (18 mg); ref Faraj et al. 1974; Concerta Prescribing Information 2013; cited from earlier work
[7] = tested on: water louse (Asellus aquaticus); assay: Study 2: uptake in whole-body tissue of water louse; conditions: for Start relative tissue concentration (Cb/Cw): 60 min after dosing; for End relative tissue concentration (Cb/Cw): final sampling day
Excerpt: as §5, §6
(§8) Immediately after sampling, all water and organisms sampled were frozen at − 20 °C until further processing. Muscle tissue (mean ± s.d. 0.09 ± 0.02 g; range 0.02–0.13 g) was dissected from each stickleback by taking a section of the dorsal axial muscle. Water louse collected from each temperature treatment (10 °C and 20 °C) on each sampling day were pooled due to low sample weight before extracting whole-body tissue (0.05 ± 0.01 g; range 0.03–0.07 g). However, when enough tissue was available, multiple water louse samples were analysed. To each sample, 5 ng (50 μL) of the internal standard methylphenidate-D9 (Cerilliant, USA; in methanol, HPLC-grade, Fisher Chemical, Loughborough, UK) was added. For both stickleback and water louse, tissues were extracted using 1.5 ml acetonitrile (HPLC-grade, Fisher Chemical, Loughborough, UK) repeated twice (based on the method used by Brodin et al. [2013]; McCallum et al. [2017], [2018]). The samples were homogenized and extracted for 4 min at 42,000 oscillations per minute (Mini Beadbeater, Biospec. Bartlesville, USA) with zirconium beads and then centrifuged the samples at 17,500 g for 10 min (Beckman Coulter Microfuge 22R Centrifuge). This protocol was used for both eluent mixtures, and the supernatants were combined. The combined supernatants were evaporated to 20 μl and the sample was reconstituted in 100 μl methanol (HPLC-grade, Fisher Chemical, Loughborough, UK).

in vivo [8] = conditions: water louse (Asellus aquaticus), 187 ng/L
Excerpt: as §5, §6, §8

water louse = conditions: naturalistic pond experiment; ref Lagesson et al. 2016; cited from earlier work

For `O=C(O)C(c1ccccc1)C1CCCCN1` (stereo not drawn) [ritalinic acid, α-phenyl-2-piperidine acetic acid], the “Formation time of ritalinic acid in water” value (“Formation time” below) ([1]; 20 °C, static water only) was 79 h, the “Water concentration, measured end” value ([1]; 20 °C, static water only) was 1606 ng/L and the “Water concentration, measured start” value ([1]; 20 °C, static water only) was 387 ng/L. For the same molecule, the “Time after which ritalinic acid concentration surpasses methylphenidate in water” value ([1]; water without biota, depending on temperature) was 48 to 100 h, the “Formation time” value ([2]; 10 °C) was 62 h and the “Water concentration, measured end” value ([2]; 10 °C) was 202 ± 12 ng/L. The “Water concentration, measured start” value ([2]; 10 °C) was 11 ± 10 ng/L, the “Formation time” value ([2]; 20 °C) was 65 h and the “Water concentration, measured end” value ([2]; 20 °C) was 231 ± 12 ng/L. The “Water concentration, measured start” value ([2]; 20 °C) was 8 ± 2 ng/L and the “Time after which ritalinic acid concentration surpasses methylphenidate in water” value ([2]; water with biota, depending on temperature) was 48 to 100 h.
For `COC(=O)C(c1ccccc1)C1CCCCN1` (stereo not drawn) [methylphenidate], the “Time of peak in plasma” value (rhesus macaque) is given as 1 to 4 h, the “Effect on anxiety-like behaviours (e.g., freezing, hiding)” value (zebrafish (Danio rerio)) is given as “inhibited anxiety-like behaviours” and the concentration at 60 min (in vivo [3]) is given as 0.18 ng/g. The “Time of highest tissue concentration (first sampling point)” value [4] was 60 min, the “Time of highest tissue concentrations” value [4] was at most 4 h and the “Start relative tissue concentration (Cb/Cw)” value ([4]; 10 °C) was 1.2 ± 0.5 (0.7–2.1). For the same molecule, the “Start relative tissue concentration (Cb/Cw)” value ([4]; 20 °C) was 0.5 ± 0.1 (0.4–0.7), the “Water concentration, measured end” value ([1]; 20 °C, static water only) was 7 ng/L and the “Water concentration, measured start” value ([1]; 20 °C, static water only) was 1660 ng/L. For the same molecule, the half-life at 1870 ng/L ([1]; ground water in an aerated glass aquarium, no biota) was 37 h, the “Time that concentrations stay above ~ 180 ng/L in the water column” value ([1]; study not given) was “up to 2 days” and the pKa [5] was 9.5. For the same molecule, the “Effect on anxiety behaviours” value (zebrafish) was “Reductions in anxiety behaviours”, the “Effect on anxiety behaviours” value [6] was “Reductions in anxiety behaviours” and the “Time of peak in plasma” value (human) was 1 to 4 h. The “Water concentration, measured end” value ([2]; 10 °C) was 28 ± 4 ng/L, the “Water concentration, measured start” value ([2]; 10 °C) was 192 ± 28 ng/L and the “Water concentration, measured end” value ([2]; 20 °C) was 2 ± 1 ng/L. The “Water concentration, measured start” value ([2]; 20 °C) was 205 ± 19 ng/L, the half-life at 187 ng/L ([2]; 10 °C) was 122 h and the half-life at 187 ng/L ([2]; 20 °C) was 47 h. The “Share of dose excreted as ritalinic acid” value (humans) was “up to 80%”, the “Start relative tissue concentration (Cb/Cw)” value ([7]; 10 °C) was 0.6 and the “End relative tissue concentration (Cb/Cw)” value ([7]; 10 °C) was 7.5 ± 3.2 (4.0–10.4). For the same molecule, the “Start relative tissue concentration (Cb/Cw)” value ([7]; 20 °C) was 1.1, the “End relative tissue concentration (Cb/Cw)” value ([7]; 20 °C) was 50.0 and the “Time of peak tissue concentration” value ([7]; depending on temperature) was ~ 6 days and 5 to 7 days and 5–7 days. The concentration at 60 min (in vivo [8]) was 0.2 ng/g and the concentration at 13 days (in vivo [8]) was 0.1 ng/g.
In the case of `OCCOCCN1CCN(C(c2ccccc2)c2ccc(Cl)cc2)CC1` (stereo not drawn) [hydroxyzine], the “Bioconcentration in water louse compared to European perch (Perca fluviatilis)” value (water louse) is listed as “higher levels”.
In the case of `O=C1Nc2ccc(Cl)cc2C(c2ccccc2)=NC1O` (stereo not drawn) [oxazepam], the “Bioconcentration in water louse compared to European perch (Perca fluviatilis)” value (water louse) is given as “higher levels”.
